The conditions of data set [1]: in vivo; cited from earlier work.
The format of data set [2] is in vitro ADME, hairless guinea pig. The method, then:
Aliquots (100 μg) of peptide were incubated at 37° C. with skin extract (1 mL) over the indicated periods of time. The remaining peptide was separated and quantified by HPLC. The data represent averages of duplicate experiments;
The incubation of peptides (PTH(1-34), left panel and PTH(1-34) amide, right panel) with skin extracts, over the indicated times, was conducted as described in Example 2. Fractions containing the peaks were collected, lyophilized and the masses were determined by MALDI-TOF.
Hairless guinea pig skin extracts (1 mL aliquots) were prepared from samples of plasma and skin extracts, respectively, and stored at about −20° C. Stock solutions of hPTH(1-34), hPTH(1-34)NH2, hPTH (1-34)NH-propyl, and hPTH (1-34)NH-phenylpropyl were prepared in HPLC-grade water to achieve a concentration of 10 mg of peptide/mL. Aliquots of skin extracts (1 ml) were incubated at 37° C. for 10 minutes prior to the addition of peptide (100 μg; 10 μL stock solution) or water (10 μL) (control). […]
The lyophilized samples were resuspended in 200 μL of 0.1 N acetic acid and centrifuged at 13,000 g for 15 minutes at room temperature. […] Fractions containing the metabolites of PTH derivatives were collected, concentrated by lyophilization and their masses determined by MALDI-TOF MS (using Voyager-DE Perseptive Biosystems according to the manufacture's procedure).

Turning to PTH (1-31), in data set [1], the “potency in anabolic actions on the bone relative to PTH(1-34)” value is recorded as “as potent as PTH(1-34)” and the “stimulation of resorption markers” value is on record as “without stimulating resorption markers”.
With hPTH(1-34) [PTH (1-34)], in data set [2], the “site of degradation by skin proteases” value was “takes place at the carboxyterminal end”.

These data come from US20040023882A1, “PTH derivatives resistant to skin proteases” (priority 2002, published 2004).
